ChEMBL document CHEMBL1909625, “Sesquiterpene lactones from Inula falconeri, a plant endemic to the Himalayas, as potential anti-inflammatory agents” (Eur J Med Chem, 2011)
pIC50: −log10 of the molar value.

Experiments:
[1] = system: RAW264.7; assay: Antiinflammatory activity in mouse RAW264.7 cells assessed as inhibition of LPS-induced NO production pretreated for 30 mins before LPS challenge measured 24 hrs after LPS challenge by Griess reaction method; type: functional, cell-based
[2] = system: RAW264.7; assay: Cytotoxicity against mouse RAW264.7 cells at antiinflammatory IC50 level by MTT assay; type: cell-based

## C[C@@H]1C[C@@H]2OC(=O)[C@H](C)[C@H]2[C@H](O)[C@]2(C)C(=O)CC[C@@H]12
[1]
  pIC50: 4.69
[2]
  Activity: Non-toxic

## C=C1C[C@H]2OC(=O)C(=C)[C@H]2C[C@@H]2[C@@H]1CC[C@@]2(C)O
[1]
  pIC50: 5.40
[2]
  Activity: Non-toxic

## C=C1C(=O)O[C@H]2CC(=C)[C@H]3CC[C@@](C)(O)[C@@H]3[C@@H](O)[C@H]12
[1]
  pIC50: 6.54
[2]
  Activity: Non-toxic

## C=C1C(=O)O[C@H]2C=C(C)[C@H]3CC[C@@](C)(O)[C@@H]3[C@@H](O)[C@H]12
[1]
  pIC50: 6.89
[2]
  Activity: Non-toxic

## C=C(CCCOC(=O)CCCCCCC/C=C\C/C=C\CCCCC)[C@@H]1CC(C)(C)[C@H]1CCC(C)=O
[1]
  pIC50: 4.45
[2]
  Activity: Non-toxic

## C=C1C(=O)O[C@@H]2C[C@@]3(C)O[C@@H]3CC[C@@]3(C)O[C@H]3C[C@@H]12
[1]
  pIC50: 5.19
[2]
  Activity: Non-toxic

## C=C1C(=O)O[C@@H]2C[C@@]3(C)[C@@H](O)C[C@@H](OC(=O)C=C(C)C)C(=C)[C@@H]3C[C@H]12
[1]
  pIC50: 5.33
[2]
  Activity: Non-toxic

## C=C1C(=O)O[C@H]2C[C@@H](C)C(CCC(C)O)=CC[C@H]12 (some centres not stated)
[1]
  pIC50: 6.06
[2]
  Activity: Non-toxic

## C=C1C(=O)O[C@@H]2C[C@H](C)C(CCC(C)OC(C)=O)=CC[C@H]12 (some centres not stated)
[1]
  pIC50: 6.09
[2]
  Activity: Non-toxic

## CC(=O)CCC1=C[C@@H](O)[C@@H]2[C@H](C)C(=O)O[C@@H]2C[C@@H]1C
[1]
  pIC50: 4.66
[2]
  Activity: Non-toxic

## C=C1C(=O)O[C@@H]2C[C@H](C)[C@]3(CCC(C)O)O[C@@H]3C[C@H]12 (some centres not stated)
[1]
  pIC50: 4.72
[2]
  Activity: Non-toxic

## C[C@@H]1C[C@@H]2OC(=O)[C@H](C)[C@H]2C[C@]2(C)C(=O)CC[C@@H]12
[1]
  pIC50: 4.97
[2]
  Activity: Non-toxic

## C=C1C(=O)O[C@H]2C[C@@H](C)[C@@H]3CC[C@H](O)[C@@]3(C)[C@@H](OC(C)=O)[C@H]12
[1]
  pIC50: 6.44
[2]
  Activity: Non-toxic

## C=C1C(=O)O[C@H]2C[C@@H](C)[C@@H]3CC[C@H](OC(C)=O)[C@@]3(C)[C@@H](O)[C@H]12
[1]
  pIC50: 5.69
[2]
  Activity: Non-toxic

## C=C1C[C@@H]2OC(=O)[C@H](C)[C@H]2C[C@@H]2[C@@H]1CC[C@@]2(C)O
[1]
  pIC50: 4.39
[2]
  Activity: Non-toxic

## C=C1C[C@@H]2OC(=O)[C@@H](C)[C@H]2C[C@@H]2[C@@H]1CC[C@@]2(C)O
[1]
  pIC50: 4.71
[2]
  Activity: Non-toxic

## C=C1C(=O)O[C@H]2C[C@H](C)[C@@H]3CC[C@@]4(C)O[C@@]34C[C@H]12
[1]
  pIC50: 6.96
[2]
  Activity: Non-toxic

## C=C1C[C@H]2OC(=O)C(=C)[C@H]2C[C@@H]2[C@@H]1CC[C@]2(C)O
[1]
  pIC50: 5.14
[2]
  Activity: Non-toxic

## C=C1C(=O)O[C@@H]2C[C@@]3(C)[C@@H](O)C[C@@H](OC(=O)C(C)C)C(=C)[C@@H]3C[C@H]12
[1]
  pIC50: 5.04
[2]
  Activity: Non-toxic

## C=C1C(=O)O[C@@H]2C[C@H](C)C(CCC(C)O)=CC[C@H]12 (some centres not stated)
[1]
  pIC50: 5.26
[2]
  Activity: Non-toxic

## CC(=O)CCC1=CC[C@@H]2[C@H](C)C(=O)O[C@@H]2C[C@@H]1C
[1]
  pIC50: 4.19
[2]
  Activity: Non-toxic

## C=C1C(=O)O[C@@H]2C[C@@H](C)[C@@H]3CCC(=O)[C@@]3(C)C[C@H]12
[1]
  pIC50: 6.40
[2]
  Activity: Non-toxic

## C=C1C(=O)O[C@H]2C=C(C)[C@@H]3CC[C@](C)(O)[C@@H]3C[C@H]12 [4-EPI-ISOINUVISCOLIDE]
[1]
  pIC50: 5.23
[2]
  Activity: Non-toxic

## C=C1C(=O)O[C@H]2C[C@@H](C)[C@@H]3CCC(=O)[C@@]3(C)[C@@H](O)[C@H]12 [CARPESIOLIN]
[1]
  pIC50: 5.66
[2]
  Activity: Non-toxic

## CC(=O)O[C@H]1[C@H]2[C@H](C[C@@H](C)[C@@H]3CCC(=O)[C@]31C)OC(=O)[C@@H]2C [DIHYDROERGOLIDE]
[1]
  pIC50: 5.08
[2]
  Activity: Non-toxic

## C=C1C(=O)O[C@H]2C[C@@H](C)[C@@H]3CCC(=O)[C@@]3(C)[C@@H](OC(C)=O)[C@H]12 [ERGOLIDE]
[1]
  pIC50: 7.15
[2]
  Activity: Non-toxic

## C=C1C(=O)O[C@@H]2C[C@@]3(C)[C@@H](O)C[C@@H](O)C(=C)[C@@H]3C[C@H]12 [GRANILIN]
[1]
  pIC50: 6.96
[2]
  Activity: Non-toxic

## C=C1C(=O)O[C@@H]2C[C@@]3(C)CCC[C@H](C)C3=C[C@H]12 [HELENINE]
[1]
  pIC50: 5.93
[2]
  Activity: Non-toxic

## C=C1C(=O)O[C@H]2CC(=C)[C@H]3CC[C@@](C)(O)[C@@H]3C[C@H]12 [INUVISCOLIDE]
[1]
  pIC50: 5.02
[2]
  Activity: Non-toxic

## N=C(N)NN [PIMAGEDINE]
[1]
  pIC50: 6.70

## C=C1C(=O)O[C@H](CC(C)=O)[C@@H]1CC1=C(C)CCC1=O [POSTIA SECOGUAIANOLIDE]
[1]
  pIC50: 4.80
[2]
  Activity: Non-toxic

## C=C1C(=O)O[C@H]2C[C@@H](C)[C@@H]3CC[C@H](O)[C@@]3(C)C[C@H]12 [PSEUDOGUAIANOLIDE]
[1]
  pIC50: 5.00
[2]
  Activity: Non-toxic

## C=C1C(=O)O[C@@H]2C[C@H](C)C(CCC(C)=O)=CC[C@H]12 [TOMENTOSIN]
[1]
  pIC50: 5.15
[2]
  Activity: Non-toxic

## C=C1C(=O)O[C@H]2C[C@H](C)[C@@H]3CC(=O)C(C)=C3C[C@H]12 [XERANTOLIDE]
[1]
  pIC50: 4.89
[2]
  Activity: Non-toxic
